Common to all, as to format: biochemical
In one test the test system is AKT. The test is described as follows: In vitro AKT enzyme inhibitory assay.
A further test has as its target PI3Kβ (Homo sapiens, UniProt P42338). Put plainly: In vitro PI3K enzyme inhibitory assay (ADP-Glo), PI3Kβ. The note with it: read-out: PI3Kβ % inhibition at 10 μM. For orientation: In ADP-Glo the light output rises with the ADP produced.
The target of the next test is PI3Kγ (Homo sapiens, UniProt P48736). The test is described as follows: In vitro PI3K enzyme inhibitory assay (ADP-Glo), PI3Kγ. The note with it: read-out: PI3Kγ % inhibition at 10 μM.
Chain of PI3Kγ (P48736 whole entry): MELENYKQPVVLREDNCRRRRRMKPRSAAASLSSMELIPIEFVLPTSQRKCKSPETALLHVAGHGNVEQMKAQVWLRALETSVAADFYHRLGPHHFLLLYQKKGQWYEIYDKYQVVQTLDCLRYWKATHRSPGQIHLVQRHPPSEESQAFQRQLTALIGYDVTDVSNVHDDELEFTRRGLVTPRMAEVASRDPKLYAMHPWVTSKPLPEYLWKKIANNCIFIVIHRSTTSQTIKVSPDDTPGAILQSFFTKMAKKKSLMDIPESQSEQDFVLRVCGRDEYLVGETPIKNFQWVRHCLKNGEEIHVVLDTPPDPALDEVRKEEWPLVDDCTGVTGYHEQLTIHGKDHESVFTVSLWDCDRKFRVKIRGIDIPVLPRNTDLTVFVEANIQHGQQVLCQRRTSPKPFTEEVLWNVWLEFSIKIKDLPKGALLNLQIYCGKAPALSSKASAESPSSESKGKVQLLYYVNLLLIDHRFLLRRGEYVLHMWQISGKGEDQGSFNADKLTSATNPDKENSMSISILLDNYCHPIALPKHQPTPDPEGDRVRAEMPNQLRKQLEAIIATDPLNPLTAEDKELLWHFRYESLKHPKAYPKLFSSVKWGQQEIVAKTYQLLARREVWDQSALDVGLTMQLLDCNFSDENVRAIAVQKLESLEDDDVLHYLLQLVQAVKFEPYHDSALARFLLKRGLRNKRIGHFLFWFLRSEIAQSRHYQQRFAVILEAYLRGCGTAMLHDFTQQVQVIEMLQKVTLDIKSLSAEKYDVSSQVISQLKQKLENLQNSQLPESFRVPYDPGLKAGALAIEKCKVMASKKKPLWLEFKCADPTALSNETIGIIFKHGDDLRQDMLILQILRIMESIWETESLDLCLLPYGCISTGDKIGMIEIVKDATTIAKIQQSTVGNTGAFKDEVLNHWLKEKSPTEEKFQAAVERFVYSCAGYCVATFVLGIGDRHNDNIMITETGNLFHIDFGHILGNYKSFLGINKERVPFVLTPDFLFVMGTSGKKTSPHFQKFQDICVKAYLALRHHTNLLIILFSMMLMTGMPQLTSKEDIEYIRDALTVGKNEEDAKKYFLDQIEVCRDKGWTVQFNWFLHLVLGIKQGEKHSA
For a further test, the target named is PI3Kα (Homo sapiens, UniProt P42336). Put plainly: In vitro PI3K enzyme inhibitory assay (ADP-Glo), PI3Kα. The note with it: read-out: PI3Kα % inhibition at 10 μM.
Chain of PI3Kα (P42336 whole entry): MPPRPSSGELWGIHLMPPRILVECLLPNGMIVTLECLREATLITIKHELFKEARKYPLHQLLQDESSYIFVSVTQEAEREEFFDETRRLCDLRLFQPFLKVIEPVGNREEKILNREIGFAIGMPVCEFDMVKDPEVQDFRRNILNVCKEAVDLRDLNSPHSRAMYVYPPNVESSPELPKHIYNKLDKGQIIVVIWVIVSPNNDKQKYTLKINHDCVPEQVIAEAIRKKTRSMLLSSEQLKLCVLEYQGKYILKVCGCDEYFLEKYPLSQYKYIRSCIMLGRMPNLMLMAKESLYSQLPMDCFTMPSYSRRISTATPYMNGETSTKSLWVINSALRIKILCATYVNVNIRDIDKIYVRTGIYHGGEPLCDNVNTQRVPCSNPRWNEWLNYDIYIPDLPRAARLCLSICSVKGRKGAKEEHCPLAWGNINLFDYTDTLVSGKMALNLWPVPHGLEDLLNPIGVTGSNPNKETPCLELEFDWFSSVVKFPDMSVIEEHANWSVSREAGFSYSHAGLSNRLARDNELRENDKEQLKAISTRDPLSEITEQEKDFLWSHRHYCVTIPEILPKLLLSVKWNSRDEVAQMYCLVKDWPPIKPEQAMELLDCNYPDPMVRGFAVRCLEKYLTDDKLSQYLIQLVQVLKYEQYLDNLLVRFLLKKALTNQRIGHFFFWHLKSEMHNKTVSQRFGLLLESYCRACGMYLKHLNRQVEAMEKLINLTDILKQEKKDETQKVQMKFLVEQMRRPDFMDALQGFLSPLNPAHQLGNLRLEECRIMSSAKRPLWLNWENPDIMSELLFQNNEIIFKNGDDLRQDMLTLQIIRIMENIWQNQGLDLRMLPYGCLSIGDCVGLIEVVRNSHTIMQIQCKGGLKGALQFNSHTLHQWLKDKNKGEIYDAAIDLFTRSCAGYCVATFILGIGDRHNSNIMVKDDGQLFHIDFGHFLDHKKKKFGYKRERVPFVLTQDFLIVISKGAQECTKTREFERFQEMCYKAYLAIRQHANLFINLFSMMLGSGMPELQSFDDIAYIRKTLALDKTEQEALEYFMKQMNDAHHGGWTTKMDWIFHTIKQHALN
Chain of PI3Kα (P27986 whole entry partner): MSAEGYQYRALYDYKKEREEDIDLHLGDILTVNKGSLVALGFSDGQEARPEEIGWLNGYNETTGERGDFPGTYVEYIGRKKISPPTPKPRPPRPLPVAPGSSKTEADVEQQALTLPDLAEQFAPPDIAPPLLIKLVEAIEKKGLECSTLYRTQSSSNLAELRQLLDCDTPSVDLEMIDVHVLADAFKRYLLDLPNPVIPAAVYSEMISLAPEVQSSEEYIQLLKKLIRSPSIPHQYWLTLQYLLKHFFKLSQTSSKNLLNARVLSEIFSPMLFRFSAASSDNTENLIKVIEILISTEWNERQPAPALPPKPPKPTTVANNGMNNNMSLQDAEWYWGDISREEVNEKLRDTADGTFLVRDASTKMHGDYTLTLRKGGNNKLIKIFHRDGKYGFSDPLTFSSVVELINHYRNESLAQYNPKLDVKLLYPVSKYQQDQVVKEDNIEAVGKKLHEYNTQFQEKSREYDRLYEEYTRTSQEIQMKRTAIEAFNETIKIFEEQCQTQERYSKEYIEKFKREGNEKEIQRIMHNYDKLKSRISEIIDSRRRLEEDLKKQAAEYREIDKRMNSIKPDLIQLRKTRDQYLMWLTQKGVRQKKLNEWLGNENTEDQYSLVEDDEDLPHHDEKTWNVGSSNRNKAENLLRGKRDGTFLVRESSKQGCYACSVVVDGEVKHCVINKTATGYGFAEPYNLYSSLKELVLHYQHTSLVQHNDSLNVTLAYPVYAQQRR

Chain of PI3Kβ (P42338 whole entry): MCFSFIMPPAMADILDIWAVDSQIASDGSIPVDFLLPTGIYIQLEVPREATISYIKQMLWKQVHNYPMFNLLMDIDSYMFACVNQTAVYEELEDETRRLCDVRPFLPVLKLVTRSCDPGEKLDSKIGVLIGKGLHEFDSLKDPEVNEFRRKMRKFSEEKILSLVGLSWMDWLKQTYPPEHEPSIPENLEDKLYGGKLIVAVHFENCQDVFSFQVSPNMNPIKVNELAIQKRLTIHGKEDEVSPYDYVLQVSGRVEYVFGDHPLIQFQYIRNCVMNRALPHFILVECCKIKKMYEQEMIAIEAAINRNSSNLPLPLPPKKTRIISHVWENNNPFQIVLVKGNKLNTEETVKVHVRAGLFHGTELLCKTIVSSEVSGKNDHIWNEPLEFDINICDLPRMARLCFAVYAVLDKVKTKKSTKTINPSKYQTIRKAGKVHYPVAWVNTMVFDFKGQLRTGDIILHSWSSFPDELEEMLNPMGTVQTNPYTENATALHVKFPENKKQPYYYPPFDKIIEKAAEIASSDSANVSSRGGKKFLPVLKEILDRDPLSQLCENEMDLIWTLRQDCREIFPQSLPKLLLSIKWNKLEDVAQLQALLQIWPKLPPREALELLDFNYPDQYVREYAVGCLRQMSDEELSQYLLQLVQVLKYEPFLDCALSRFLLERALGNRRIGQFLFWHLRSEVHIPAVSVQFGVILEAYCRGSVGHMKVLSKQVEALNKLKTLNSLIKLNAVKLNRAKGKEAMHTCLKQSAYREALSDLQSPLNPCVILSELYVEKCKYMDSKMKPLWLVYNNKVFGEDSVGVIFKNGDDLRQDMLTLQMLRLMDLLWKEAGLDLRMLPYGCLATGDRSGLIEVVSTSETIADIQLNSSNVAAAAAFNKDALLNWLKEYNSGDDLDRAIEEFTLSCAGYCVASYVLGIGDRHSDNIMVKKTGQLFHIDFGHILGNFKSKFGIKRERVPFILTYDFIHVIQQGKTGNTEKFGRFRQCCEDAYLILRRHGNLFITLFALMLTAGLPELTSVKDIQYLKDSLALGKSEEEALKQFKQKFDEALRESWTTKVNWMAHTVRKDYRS
Chain of PI3Kβ (P27986 whole entry partner): as the sequence (P27986 whole entry partner) above

Consider `Oc1cccc(-c2nc(N3CCOCC3)c3oc4ncccc4c3n2)c1` [PI-103, reference compound], for which the “AKT % inhibition at 10 μM” value in the test on AKT came to 100%. Further, the inhibition (in general, the relative decrease from the control value, in per cent) at 10 µM on PI3Kβ is 5%; on PI3Kγ, 12%; on PI3Kα it was 100%.

(Values after publication PMC11790660 (Frontiers in Chemistry, 2025).)
